Test results taken from patent publication US6750228B1, “Aromatic sulfone hydroxamic acid metalloprotease inhibitor” (priority 1997, dated 2004).
pIC50: −log10 of the molar value. Structures can show the parent of a compound that is named as a salt. Where two headings read alike, the source gives them in different places.

Tests used:
Test in all cases: biochemical
MMP-1 = biological target: T1, MMP-1 (Homo sapiens, UniProt P03956); settings: read-out: MMP-1 IC50
T1 construct: made in house; host or cells: transfected HT-1080 cells (provided by Dr. Harold Welgus, Washington University)
T1 sequence (P03956 100-469): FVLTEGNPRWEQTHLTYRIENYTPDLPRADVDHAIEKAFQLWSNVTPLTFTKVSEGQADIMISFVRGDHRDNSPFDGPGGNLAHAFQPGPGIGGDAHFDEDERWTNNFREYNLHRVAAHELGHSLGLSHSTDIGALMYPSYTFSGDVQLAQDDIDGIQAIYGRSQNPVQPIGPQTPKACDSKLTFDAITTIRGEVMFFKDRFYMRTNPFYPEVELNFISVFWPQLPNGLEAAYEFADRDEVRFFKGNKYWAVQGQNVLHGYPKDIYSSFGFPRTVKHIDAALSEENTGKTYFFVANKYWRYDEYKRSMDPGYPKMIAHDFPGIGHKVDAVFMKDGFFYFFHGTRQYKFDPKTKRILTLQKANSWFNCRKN
In short: (§1)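 APMA- or trypsin-activated human MMPs (MMP-1 from transfected HT-1080 cells, MMP-2 from transfected cells) preincubated with inhibitor in 1% DMSO at room temperature, then 4 μM MCA-Pro-Leu-Gly-Leu-Dpa-Ala-Arg-NH2 added in Tris/NaCl/CaCl2 buffer pH 7.5. IC50 from fluorescence reduction versus inhibitor concentration.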

MMP-13 = biological target: T2, MMP-13 (Homo sapiens, UniProt P45452); settings: for pIC50: read-out: MMP-13 IC50
T2 construct: made in house; host or cells: baculovirus / insect cells
In short: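 APMA- or trypsin-activated enzymes were preincubated with inhibitor for 5 min at room temperature, then the fluorogenic substrate MCA-Pro-Leu-Gly-Leu-Dpa-Ala-Arg-NH2 was added to a final 4 μM.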

MMP-2 = biological target: T3, MMP-2 (Homo sapiens, UniProt P08253); settings: for pIC50: read-out: MMP-2 IC50
T3 construct: made in house; provided by Dr. Gregory Goldberg, Washington University
T3 sequence (P08253 110-660): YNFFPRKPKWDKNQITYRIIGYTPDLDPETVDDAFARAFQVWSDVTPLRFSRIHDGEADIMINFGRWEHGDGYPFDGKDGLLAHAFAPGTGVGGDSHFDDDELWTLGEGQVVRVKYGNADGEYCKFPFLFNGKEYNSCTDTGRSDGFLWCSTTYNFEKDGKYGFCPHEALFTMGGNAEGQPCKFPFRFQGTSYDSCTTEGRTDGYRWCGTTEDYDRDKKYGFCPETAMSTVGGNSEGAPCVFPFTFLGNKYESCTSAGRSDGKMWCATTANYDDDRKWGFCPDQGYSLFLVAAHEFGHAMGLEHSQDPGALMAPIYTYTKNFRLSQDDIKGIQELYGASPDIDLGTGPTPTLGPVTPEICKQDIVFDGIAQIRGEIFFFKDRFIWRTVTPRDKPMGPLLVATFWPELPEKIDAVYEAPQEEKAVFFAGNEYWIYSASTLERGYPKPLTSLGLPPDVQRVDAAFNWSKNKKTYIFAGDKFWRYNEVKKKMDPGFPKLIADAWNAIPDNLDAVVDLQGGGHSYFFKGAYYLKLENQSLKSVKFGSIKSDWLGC
In short: as §1

[1] = recombinant human MMP-1, MCA peptide substrate 4 μM, pH 7.5, room temperature
[2] = recombinant human MMP-13, MCA peptide substrate 4 μM, pH 7.5, room temperature
[3] = recombinant human MMP-2, MCA peptide substrate 4 μM, pH 7.5, room temperature

pIC50 (MMP-1; [1]) | pIC50 (MMP-13; [2]) | pIC50 (MMP-2; [3]) | Compound | pIC50 (MMP-1) | IC50 (MMP-13; MMP-13 IC50 (nM), recombinant human MMP-13, MCA peptide substrate 4 μM, pH 7.5, room temperature) [nM] | IC50 (MMP-2; MMP-2 IC50 (nM)) [nM] | pIC50 (MMP-13) | pIC50 (MMP-2)
< 5.00 | 5.85 | 5.57 | CN1CCCN(c2ccc(S(=O)(=O)C3(C(=O)NO)CCOCC3)cc2)CC1 [Example 213] | – | – | – | – | –
< 5.00 | 7.97 | 6.15 | O=C(Nc1cccc(Cl)c1)C1CCN(c2ccc(S(=O)(=O)C3(C(=O)NO)CCOCC3)cc2)CC1 [Example 70] | – | – | – | – | –
< 5.00 | 8.05 | 6.85 | Cc1ccc(OC2CCN(c3ccc(S(=O)(=O)C4(C(=O)NO)CCOCC4)cc3)CC2)c([N+](=O)[O-])c1 [Example 551] | – | – | – | – | –
< 5.00 | 7.77 | 7.06 | O=C(NO)C1(S(=O)(=O)c2ccc(N3CCC(Oc4ccc([N+](=O)[O-])c(C(F)(F)F)c4)CC3)cc2)CCOCC1 [Example 569] | – | – | – | – | –
< 5.00 | 7.12 | 5.47 | CN(C)c1cccc(NC(=O)C2CCN(c3ccc(S(=O)(=O)C4(C(=O)NO)CCOCC4)cc3)CC2)c1 [Example 77] | – | – | – | – | –
< 5.00 | 7.60 | 6.85 | CCNCc1ccc(COC2CCN(c3ccc(S(=O)(=O)C4(C(=O)NO)CCOCC4)cc3)CC2)cc1 [Example 476] | – | – | – | – | –
< 5.00 | 5.92 | 5.20 | CCOC1CCCN(c2ccc(S(=O)(=O)C3(C(=O)NO)CCOCC3)cc2)C1 (stereo not drawn) [Example 562] | – | – | – | – | –
< 5.00 | 6.85 | 6.43 | O=C(NO)C1(S(=O)(=O)c2ccc(N3CCN(C4CCCC4)CC3)cc2)CCOCC1 [Example 488] | – | – | – | – | –
< 5.00 | 8.30 | 7.22 | O=C(NO)C1(S(=O)(=O)c2ccc(N3CCC(Oc4ccc(Br)cc4)CC3)cc2)CCOCC1 [Example 479] | – | – | – | – | –
< 5.00 | 7.66 | 7.60 | O=C(NO)C1(S(=O)(=O)c2ccc(N3CCC(Oc4cccc5ccccc45)CC3)cc2)CCOCC1 [Example 614] | – | – | – | – | –
< 5.00 | 8.46 | 7.30 | O=C(Nc1ccccc1Cl)OC1CCN(c2ccc(S(=O)(=O)C3(C(=O)NO)CCOCC3)cc2)CC1 [Example 521] | – | – | – | – | –
< 5.00 | 7.70 | 6.68 | C=CCC(=O)C1CCN(c2ccc(S(=O)(=O)C3(C(=O)NO)CCOCC3)cc2)CC1 [Example 798] | – | – | – | – | –
< 5.00 | 8.05 | 7.10 | O=C(Nc1ccncn1)C1CCN(c2ccc(S(=O)(=O)C3(C(=O)NO)CCOCC3)cc2)CC1 [Example 74] | – | – | – | – | –
< 5.00 | 7.83 | 6.57 | O=C(NC1CCN(c2ccc(S(=O)(=O)C3(C(=O)NO)CCOCC3)cc2)CC1)c1ccc(OC(F)(F)F)cc1 [Example 752] | – | – | – | – | –

Second part, the compound before the results:

Compound | pIC50 (MMP-1; [1]) | pIC50 (MMP-13; [2]) | pIC50 (MMP-2; [3]) | pIC50 (MMP-1) | IC50 (MMP-13; MMP-13 IC50 (nM), recombinant human MMP-13, MCA peptide substrate 4 μM, pH 7.5, room temperature) [nM] | IC50 (MMP-2; MMP-2 IC50 (nM)) [nM] | pIC50 (MMP-13) | pIC50 (MMP-2)
O=C(NCc1ccccc1)N1CC(Oc2ccc(S(=O)(=O)C3(C(=O)NO)CCOCC3)cc2)C1 [Example 658] | < 5.00 | 7.91 | 6.00 | – | – | – | – | –
Cc1cc(C)cc(C(=O)C2CCN(c3ccc(S(=O)(=O)C4(C(=O)NO)CCOCC4)cc3)CC2)c1 [Example 730] | < 5.00 | 7.43 | 5.52 | – | – | – | – | –
O=CN1CCC(C(=O)NO)(S(=O)(=O)c2ccc(Oc3ccc(OC(F)(F)F)cc3)cc2)CC1 [Example 416] | 5.52 | 9.40 | 9.70 | – | – | – | – | –
CC(C)(C)c1ccc(C(=O)C2CCN(c3ccc(S(=O)(=O)C4(C(=O)NO)CCOCC4)cc3)CC2)cc1 [Example 789] | – | 7.91 | 5.43 | < 5.00 | – | – | – | –
CC1CC(C)CN(C(=O)C2CCN(c3ccc(S(=O)(=O)C4(C(=O)NO)CCN(C(=O)Cn5ccnc5)CC4)cc3)CC2)C1 (stereo not drawn) [Example 279] | < 5.00 | 7.70 | 5.14 | – | – | – | – | –
O=C(NO)C1(S(=O)(=O)c2ccc(N3CC=C(c4ccccc4)CC3)cc2)CCOCC1 [Example 587] | < 5.00 | 8.74 | 9.00 | – | – | – | – | –
O=C(CS(=O)(=O)c1ccc(Oc2ccncc2)cc1)NO [Example 227] | < 5.00 | 7.54 | 7.66 | – | – | – | – | –
CC1CC(C)CN(C(=O)C2CCN(c3ccc(S(=O)(=O)C4(C(=O)NO)CCN(C(=O)CN5CCC(C(=O)O)CC5)CC4)cc3)CC2)C1 (stereo not drawn) [Example 315] | < 5.00 | 6.38 | < 5.00 | – | – | – | – | –
CN(C)c1ccc(NC(=S)N2CCC(C(=O)NO)(S(=O)(=O)c3ccc(Oc4ccc(OC(F)(F)F)cc4)cc3)CC2)cc1 [Example 202] | < 5.00 | 9.40 | 9.70 | – | – | – | – | –
O=C(NO)C1(S(=O)(=O)c2ccc(N3CCN(c4ccc(Cl)cc4)CC3)cc2)CCOCC1 [Example 659] | < 5.00 | 9.00 | 8.43 | – | – | – | – | –
CC1CC(C)CN(C(=O)C2CCN(c3ccc(S(=O)(=O)C4(C(=O)NO)CCN(C(=O)CNCc5ccncc5)CC4)cc3)CC2)C1 (stereo not drawn) [Example 285] | < 5.00 | 7.71 | 5.05 | – | – | – | – | –
COCCN1CCC(C(=O)NO)(S(=O)(=O)c2ccc(N3CCC(C(=O)Nc4ccccc4)CC3)cc2)CC1 [Example 236, N-Hydroxy-1-(2-methoxyethyl)-4-[[4-[4-[(phenylamino)carbonyl]-1-piperidinyl]phenyl]-sulfonyl]-4-piperidinecarboxamide Monohydrochloride)] | < 5.00 | – | – | – | 9 | 400 | – | –
O=C(NO)C1(S(=O)(=O)c2ccc(N3CCN(S(=O)(=O)c4ccccc4C(F)(F)F)CC3)cc2)CCOCC1 [Example 675] | 5.22 | 7.89 | 7.06 | – | – | – | – | –
COCCNCC(=O)N1CCC(C(=O)NO)(S(=O)(=O)c2ccc(N3CCC(C(=O)N4CC(C)CC(C)C4)CC3)cc2)CC1 (stereo not drawn) [Example 309] | < 5.00 | 7.31 | < 5.00 | – | – | – | – | –
Cc1cccc(S(=O)(=O)N2CCN(c3ccc(S(=O)(=O)C4(C(=O)NO)CCOCC4)cc3)CC2)c1 [Example 671] | < 5.00 | 8.22 | 6.89 | – | – | – | – | –
O=C(NO)C1(S(=O)(=O)c2ccc(Oc3ccc(C(F)(F)F)cc3)cc2)CCN(c2ccccn2)CC1 [Example 395] | < 5.00 | 9.05 | 9.30 | – | – | – | – | –
O=C(NO)C1(S(=O)(=O)c2ccc(Oc3ccc(OC(F)(F)F)cc3)cc2)CCN(S(=O)(=O)Cc2ccccc2)CC1 [Example 195] | < 5.00 | 9.00 | 9.70 | – | – | – | – | –
CC1CN(c2ccc(S(=O)(=O)C3(C(=O)NO)CCOCC3)cc2)CCC1OCc1ccc(F)cc1 (stereo not drawn) [Example 582] | < 5.00 | 7.52 | 5.74 | – | – | – | – | –
O=C(NO)C1(S(=O)(=O)c2ccc(N3CCN(S(=O)(=O)c4ccccc4OC(F)(F)F)CC3)cc2)CCOCC1 [Example 673] | < 5.00 | 7.83 | 6.34 | – | – | – | – | –
O=C(NO)C1(S(=O)(=O)c2ccc([C@H]3CC[C@H](c4ccccc4)CC3)cc2)CCOCC1 [Example 782] | < 5.00 | 7.68 | 7.00 | – | – | – | – | –
O=C(CNCc1ccncc1)N1CCC(C(=O)NO)(S(=O)(=O)c2ccc(Oc3ccc(C(F)(F)F)cc3)cc2)CC1 [Example 325] | < 5.00 | 9.05 | 9.70 | – | – | – | – | –
O=C(NO)C1(S(=O)(=O)c2ccc(N3CC[C@@H](OCc4ccc(OC(F)(F)F)cc4)C3)cc2)CCOCC1 [Example 467] | < 5.00 | 7.57 | 6.85 | – | – | – | – | –
O=C(c1ccc2ccccc2c1)C1CCN(c2ccc(S(=O)(=O)C3(C(=O)NO)CCOCC3)cc2)CC1 [Example 844] | – | 8.30 | 5.33 | < 5.00 | – | – | – | –
CC(C)COCc1ccc(COC2CCN(c3ccc(S(=O)(=O)C4(C(=O)NO)CCOCC4)cc3)CC2)cc1 [Example 555] | < 5.00 | 8.43 | 6.66 | – | – | – | – | –
O=C(C1CCN(c2ccc(S(=O)(=O)C3(C(=O)NO)CCOCC3)cc2)CC1)N1CCN(c2ccc(F)cc2F)CC1 [Example 36] | – | – | – | < 5.00 | – | – | 7.80 | 5.68
